Numbering of substitutions follows the chain as printed.

The results in this text go back to article PMC4275348 (Molecular microbiology, 2014).

Holding throughout (type): cell-based, Vibrio harveyi
Assay [1] concerns the target T1, LuxN^H210Q (Vibrio campbellii, UniProt A7MRY4, H210Q).
T1 sequence (A7MRY4 1-849 H210Q): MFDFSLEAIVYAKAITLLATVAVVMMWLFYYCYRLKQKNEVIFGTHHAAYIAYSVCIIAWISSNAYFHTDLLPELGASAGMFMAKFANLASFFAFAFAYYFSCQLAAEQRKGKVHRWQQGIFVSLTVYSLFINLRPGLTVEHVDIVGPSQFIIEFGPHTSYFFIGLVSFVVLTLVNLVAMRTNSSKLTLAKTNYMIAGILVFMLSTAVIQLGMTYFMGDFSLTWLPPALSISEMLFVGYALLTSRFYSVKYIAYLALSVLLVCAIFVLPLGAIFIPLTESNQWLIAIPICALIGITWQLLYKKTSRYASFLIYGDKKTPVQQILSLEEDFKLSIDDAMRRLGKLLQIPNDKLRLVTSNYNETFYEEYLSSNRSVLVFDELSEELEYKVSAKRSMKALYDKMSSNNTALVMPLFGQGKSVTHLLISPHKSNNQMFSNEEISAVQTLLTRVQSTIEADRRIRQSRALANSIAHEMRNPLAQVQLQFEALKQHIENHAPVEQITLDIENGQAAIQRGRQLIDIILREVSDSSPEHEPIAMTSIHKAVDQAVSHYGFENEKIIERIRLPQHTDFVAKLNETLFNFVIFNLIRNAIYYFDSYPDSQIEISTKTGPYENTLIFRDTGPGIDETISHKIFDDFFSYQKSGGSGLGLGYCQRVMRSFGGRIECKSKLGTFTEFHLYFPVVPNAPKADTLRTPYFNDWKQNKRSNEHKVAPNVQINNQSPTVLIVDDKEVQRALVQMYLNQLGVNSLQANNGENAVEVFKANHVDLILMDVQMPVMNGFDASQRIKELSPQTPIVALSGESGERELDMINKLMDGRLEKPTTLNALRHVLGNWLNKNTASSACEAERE
Put plainly: Bioluminescence of V. harveyi XK006 carrying luxN H210Q. The settings on record: 1 μM AHL.

Assay [2] has as its target T2, LuxN^H210T (Vibrio campbellii, UniProt A7MRY4, H210T).
T2 sequence (A7MRY4 1-849 H210T): T1 sequence (A7MRY4 1-849 H210Q) with Q210T
Put plainly: Bioluminescence of V. harveyi XK006 carrying luxN H210T. Particulars: 1 μM AHL.

Assay [3] deals with T3, LuxN^G147D/Y194H (Vibrio campbellii, UniProt A7MRY4, G147D/Y194H).
T3 sequence (A7MRY4 1-849 G147D/Y194H): T1 sequence (A7MRY4 1-849 H210Q) with G147D, Y194H, Q210H
Put plainly: Bioluminescence of V. harveyi XK006 carrying luxN G147D/Y194H.

Turning to `C[C@@H](O)CC(=O)N[C@H]1CCOC1=O` [3OH-C4 HSL, N-((R)-3-hydroxybutanoyl)-L-homoserine lactone], the “induction of light production” value in assay [1] is recorded as 50 fold; in assay [3] (20 nM AI-1) it was 30 fold. In addition, the “response (light production)” value in assay [2] is “modest response”. Besides, the “response (dose-dependent light production)” value in assay [3] is reported as “most potent agonist”.
